As a reminder, the IC50 is the concentration that inhibits the measured activity by half.

Activity calls are given as the source filed them. How the calls were made is not given here.

For 67 molecules, IC50 results are on record in PubChem BioAssay AID602166 (The Scripps Research Institute Molecular Screening Center, 2012).

For this assay, the target named is Nuclear receptor coactivator 3 (Homo sapiens) (UniProt Q9Y6Q9). The experiment in a line: SRC3 coactivator transcriptional activity inhibitors, dose response, cell-based, luminescence (AID 602166).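 Further: potency for reduction of SRC3 reporter signal so compounds are inhibitors.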 The note with it: SRC3 luciferase reporter cell assay. In general terms: Reporter assays use an easily measured gene product as a stand-in for the process of interest.
Nuclear receptor coactivator 3 (Homo sapiens), sequence (Q9Y6Q9 whole entry, looked up): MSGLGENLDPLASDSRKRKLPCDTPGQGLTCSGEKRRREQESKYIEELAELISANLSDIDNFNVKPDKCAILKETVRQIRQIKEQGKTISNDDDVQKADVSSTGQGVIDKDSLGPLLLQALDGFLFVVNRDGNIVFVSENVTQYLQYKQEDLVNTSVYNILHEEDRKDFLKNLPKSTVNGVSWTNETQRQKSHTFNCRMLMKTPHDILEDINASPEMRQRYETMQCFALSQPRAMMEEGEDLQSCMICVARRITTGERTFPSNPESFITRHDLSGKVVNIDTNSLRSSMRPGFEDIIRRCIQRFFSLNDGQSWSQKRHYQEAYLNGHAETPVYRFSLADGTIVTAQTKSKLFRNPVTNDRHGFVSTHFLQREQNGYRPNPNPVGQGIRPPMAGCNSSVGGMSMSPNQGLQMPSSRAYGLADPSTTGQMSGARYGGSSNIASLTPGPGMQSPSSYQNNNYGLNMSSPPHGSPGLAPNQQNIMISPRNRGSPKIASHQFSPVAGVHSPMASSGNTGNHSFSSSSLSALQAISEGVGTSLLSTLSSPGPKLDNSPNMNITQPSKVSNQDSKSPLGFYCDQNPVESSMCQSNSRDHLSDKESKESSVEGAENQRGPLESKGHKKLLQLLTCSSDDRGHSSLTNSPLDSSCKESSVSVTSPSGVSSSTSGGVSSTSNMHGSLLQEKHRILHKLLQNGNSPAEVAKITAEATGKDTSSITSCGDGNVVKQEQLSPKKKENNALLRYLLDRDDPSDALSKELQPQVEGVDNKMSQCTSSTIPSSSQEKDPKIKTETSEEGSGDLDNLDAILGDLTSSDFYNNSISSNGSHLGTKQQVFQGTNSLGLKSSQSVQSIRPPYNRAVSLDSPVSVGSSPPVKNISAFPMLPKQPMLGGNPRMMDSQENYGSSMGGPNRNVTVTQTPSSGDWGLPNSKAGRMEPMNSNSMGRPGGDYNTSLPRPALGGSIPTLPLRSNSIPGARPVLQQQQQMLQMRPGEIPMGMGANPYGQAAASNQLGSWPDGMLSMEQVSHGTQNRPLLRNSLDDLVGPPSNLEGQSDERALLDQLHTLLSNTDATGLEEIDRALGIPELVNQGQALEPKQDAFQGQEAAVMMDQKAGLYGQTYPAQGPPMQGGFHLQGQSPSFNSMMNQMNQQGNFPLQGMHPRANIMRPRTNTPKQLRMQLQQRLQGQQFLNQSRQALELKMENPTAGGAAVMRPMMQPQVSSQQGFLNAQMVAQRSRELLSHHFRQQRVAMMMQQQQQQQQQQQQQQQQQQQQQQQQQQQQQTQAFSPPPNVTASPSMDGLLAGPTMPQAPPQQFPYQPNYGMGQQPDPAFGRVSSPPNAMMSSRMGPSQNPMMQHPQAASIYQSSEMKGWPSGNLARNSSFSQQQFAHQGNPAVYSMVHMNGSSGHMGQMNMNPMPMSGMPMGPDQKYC

As to `C[C@@H](C(=O)Nc1ccc2c(c1)OCCO2)n1c(=O)[nH]c2ccccc2c1=O`, the IC50 was > 35.9 µM (inactive).

For `COc1cc(/C=N/NC(=Nc2ccc(C)cc2)c2nc3ccccc3s2)ccc1O`, the IC50 was > 35.9 µM (inactive).

As to `CN1C(=O)C2(C(C#N)=C(N)N(c3cc(Cl)cc(Cl)c3)C3=C2C(=O)CC(C)(C)C3)c2ccccc21` (configuration not stated), the IC50 was 4.34 µM.

For `Cc1c(Cl)cccc1NC(=O)Nc1ccccc1C(N)=O`, the IC50 was > 35.9 µM (inactive).

Take `CCn1c2ccccc2c2cnc(N=CN(C)C)c(C#N)c21`: the IC50 was 4.94 µM.

As for `COc1ccc(/C=C2/SC(=S)N(CCC(=O)O)C2=O)cc1`, the IC50 is > 35.9 µM (inactive).

For `COc1cc(/C=C(/C(=O)c2cccs2)c2nc3ccccc3[nH]2)cc(OC)c1O`, the IC50 is > 35.9 µM (inactive).

With `O=C(NC1CCCCC1)C(c1cccnc1)N(C(=O)CCl)c1cccc(Cl)c1` (configuration not stated), the 50% inhibitory concentration (IC50) was 3.1 µM.

In the case of `Brc1ccc2ncc3ccccc3c2c1`, the IC50 was 8.02 µM.

For `Cc1ccc2occ(/C=N/NC(=O)[C@@H](N)Cc3ccccc3)c(=O)c2c1`, the concentration for half-maximal inhibition (IC50) is 9.86 µM.

On to `Cc1nc2c(-c3ccc(Cl)cc3)cnn2c(N)c1-c1ccc(F)cc1`, for which the IC50 is > 35.9 µM (inactive).

Consider `O=C(Nc1cccnc1)c1ccc(C(=O)Nc2cccnc2)cc1`, for which the IC50 was > 35.9 µM (inactive).

Regarding `C=CCn1c(O)c(C(C)=NCc2cc(OC)cc(OC)c2)c(=O)[nH]c1=O`, the concentration for half-maximal inhibition (IC50) was 7.73 µM.

As to `COc1ccc(Nc2ccncc2[N+](=O)[O-])cc1`, the IC50 was 5.32 µM.

For the molecule `Cc1ccc(C(=O)Nc2cnc3ccccc3c2)cc1`, the IC50 result was “inactive”.

On to `CN(C)c1ccc(/C=C/c2ccc3ccccc3n2)cc1`, for which the IC50 is 5.65 µM.

Turning to `CCOc1ccccc1-n1c(SCC(=O)Nc2ccccc2C(=O)O)nc2ccccc2c1=O`, the IC50 was > 35.9 µM (inactive).

Take `Cn1cnc([N+](=O)[O-])c1Sc1nc(N)nc2c1ncn2C1OC(CO)C(O)C1O` (configuration not stated): the IC50 was 6.37 µM.

On to `COC(=O)c1cccc2c1-c1ccccc1/C2=N/O`, for which the IC50 is 2.35 µM.

On to `Cc1ccc2occ(/C=N/NC(=O)c3ccccc3Br)c(=O)c2c1`, for which the IC50 entry is “inactive”.

For the molecule `CCOc1ccc(CC(=O)Nc2ccc(NC(=O)c3ccco3)cc2)cc1OCC`, the IC50 is 4.24 µM.

For `Cc1cccc2sc(NNC(=O)c3ccc(S(=O)(=O)N4CC(C)CC(C)C4)cc3)nc12` (configuration not stated), the IC50 is 5.91 µM.

Turning to `CCn1nc(/C=C/c2ccccc2)nc2c(=O)n(C)c(=O)nc1-2`, the IC50 was > 35.9 µM (inactive).

`Fc1ccc(CSc2nnc(-c3ccncc3)o2)cc1`: the 50% inhibitory concentration (IC50) is 2.44 µM.

As to `COc1ccc(COC(=O)C2=C(C)NC(=O)NC2c2ccc(F)cc2)cc1` (configuration not stated), the 50% inhibitory concentration (IC50) was 7.71 µM.

On to `COc1ccc(/C=C2\CC/C(=C\c3ccc(OC)c(OC)c3)C2=O)cc1OC`, for which the half-maximal inhibitory concentration (IC50) was 6.33 µM.

`Cc1ncc(CO)c(/C=N/NC(=O)c2cc3c(s2)CCCC3)c1O`: the IC50 was 7.15 µM.

On to `Cc1ccc(-n2c(C)cc(C(=O)COc3cccnc3[N+](=O)[O-])c2C)cc1`, for which the IC50 is > 35.9 µM (inactive).

Take `COc1ccc(OC)c(N/C=C/C(=O)c2ccccc2)c1`: the IC50 result was “inactive”.

With `CCN(c1cccc(C)c1)c1ncnc2nc[nH]c12`, the IC50 entry is “inactive”.

Consider `COc1cc2oc(=O)cc(-c3ccc(-c4ccc(CO)cc4)cc3)c2c(OC)c1OC`, for which the half-maximal inhibitory concentration (IC50) is 4.57 µM.

In the case of `C=C1C(=O)[C@]23C[C@H]1CCC2[C@@]1(C)C(C[C@@H]3O)[C@](C)(C(=O)OC)CC[C@@H]1O` (some centres not stated), the IC50 was 8.33 µM.

For the molecule `O=c1[nH]c2ccccc2n1C1CCN(C(c2cccc3ccccc23)c2nnnn2-c2ccc3c(c2)OCCO3)CC1` (configuration not stated), the IC50 entry was “inactive”.

As for `CNC(=O)c1cccn(Cc2ccc(C(F)(F)F)cc2)c1=O`, the IC50 was > 35.8 µM (inactive).

Consider `Nc1nc2c(nnn2C2CC(O)C(CO)O2)c(=O)[nH]1` (configuration not stated), for which the concentration for half-maximal inhibition (IC50) is 7.87 µM.

Take `Cc1ccc(/C=C2\SC(=S)N(CCCC(=O)NC3CCCC3)C2=O)cc1`: the concentration for half-maximal inhibition (IC50) is 1.76 µM.

With `NS(=O)(=O)c1ccc(Sc2nc3ccccc3s2)c([N+](=O)[O-])c1`, the IC50 result was “inactive”.

Turning to `COc1ccc(C)cc1NS(=O)(=O)c1ccc(NC(=O)CN(c2cc([N+](=O)[O-])ccc2C)S(C)(=O)=O)cc1`, the IC50 result was “inactive”.

In the case of `CC1(C)N=C(N)N=C(N)N1CCCCc1ccccc1`, the concentration for half-maximal inhibition (IC50) was 3.98 µM.

In the case of `COc1ccc(CCNC(=O)c2nnn(-c3ccc4c(c3)OCCO4)c2N)cc1OC`, the IC50 is > 35.9 µM (inactive).

As to `Cc1cc(/C=C2\Cc3ccccc3C2=O)c(C)n1-c1ccccc1`, the IC50 is > 35.9 µM (inactive).

With `O=C(CCl)NC(Cc1ccccc1)c1ccccc1` (configuration not stated), the 50% inhibitory concentration (IC50) was 5.58 µM.

Take `Nc1ccc(-c2cc3ccccc3oc2=O)cc1`: the IC50 is 8.26 µM.

`O=C(CC(Nc1ccc(Cl)cc1Cl)C(=O)O)c1ccccc1` (configuration not stated): the IC50 is > 35.9 µM (inactive).

As for `COc1cc([C@@H]2c3cc4c(cc3[C@@H](O[C@@H]3O[C@@H]5CO[C@@H](C)O[C@H]5[C@H](O)[C@H]3O)[C@H]3COC(=O)[C@H]23)OCO4)cc(OC)c1O`, the IC50 is 2.48 µM.

Take `Cc1cccc(CN2CCN(C(=O)CCl)CC2)c1`: the IC50 was > 35.9 µM (inactive).

Turning to `Clc1ccc(-c2csc3ncnc(NCCN4CCOCC4)c23)cc1`, the half-maximal inhibitory concentration (IC50) was 8.15 µM.

As for `O=c1[nH]cnc2c1nnn2C1OC(CO)C(O)C1O` (configuration not stated), the half-maximal inhibitory concentration (IC50) was 4.66 µM.

On to `CC(=O)NC(c1cc(Cl)c2cccnc2c1O)C(C)C` (configuration not stated), for which the IC50 was 4.54 µM.

As to `O=C(CCCc1nc(-c2ccccc2Cl)no1)NC1CCCC1`, the IC50 is 8.14 µM.

On to `CN(Cc1cnc2nc(N)nc(N)c2n1)c1ccc(C(=O)N[C@@H](CCC(=O)O)C(=O)O)cc1`, for which the IC50 was > 35.9 µM (inactive).

Take `Nc1ncccc1C(=O)OCC(=O)N1CCN(S(=O)(=O)c2ccc(Cl)cc2)CC1`: the concentration for half-maximal inhibition (IC50) is 7.74 µM.

For `CC(=O)c1ccc(Nc2c3c(nc4ccccc24)CCCC3)cc1`, the IC50 entry was “inactive”.

For `CNc1ncnc(Sc2nc(N)nc3nc[nH]c23)c1[N+](=O)[O-]`, the IC50 is 4.17 µM.

For the molecule `CS(=O)(=O)c1ccc(Sc2nc3ccccc3s2)c([N+](=O)[O-])c1`, the IC50 is > 35.9 µM (inactive).

With `C(=N\Nc1nc2ccccc2[nH]1)/c1cccc2cccnc12`, the half-inhibitory concentration (IC50) was 9.18 µM.

In the case of `CCC(=O)c1ccc(O)c(CC=C(C)C)c1`, the IC50 was 8.77 µM.

Turning to `CCOc1ccc(/C=C2\SC(=S)N(CCC(=O)O)C2=O)cc1`, the IC50 was > 35.9 µM (inactive).

`CC[C@@]1(O)C(=O)OCc2c1cc1n(c2=O)Cc2cc3c(NC(=O)CN)cccc3nc2-1`: the IC50 was 1.75 µM.

On to `Oc1ccc(C=NNc2ccccn2)c(O)c1`, for which the IC50 result was “inactive”.

Take `Cc1ccc(OCC(=O)c2cc(C)n(-c3ccccc3)c2C)c([N+](=O)[O-])n1`: the IC50 entry is “inactive”.

Take `CC(C)(C)n1ncc2c(=O)n(CC(=O)OCc3ccccc3)cnc21`: the IC50 was > 35.9 µM (inactive).

With `Cc1cc(C(=O)CN2C(=O)c3ccccc3S2(=O)=O)c(C)n1C(C)C`, the IC50 entry is “inactive”.

Regarding `O=C(COC(=O)c1ccc[nH]c1=O)Nc1ccc(N2CCCCC2)cc1`, the IC50 is 2.9 µM.

Consider `Cc1cccc(Oc2sc(C(=O)c3ccccc3)c(N)c2C#N)c1`, for which the half-maximal inhibitory concentration (IC50) is 8.09 µM.

For the molecule `O=C(CCl)Nc1cccc(-c2cnc3ccccc3n2)c1`, the IC50 entry is “inactive”.

For the molecule `Cc1cc2nccc(-c3ccncc3)n2n1`, the IC50 result was “inactive”.
